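Five concentrations, 48 hours, 96-well plates. TGI marks complete inhibition of growth.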
Key:
Assay in all cases: DTP human tumour cell line panel, 48 h
SK-MEL-2 melanoma = tested on: SK-MEL-2 melanoma
CCRF-CEM leukemia = tested on: CCRF-CEM leukemia
SK-MEL-28 melanoma = tested on: SK-MEL-28 melanoma
HL-60(TB) leukemia = tested on: HL-60(TB) leukemia
HS 578T breast = tested on: HS 578T breast
MDA-MB-231 breast = tested on: MDA-MB-231 breast
SR leukemia = tested on: SR leukemia
SNB-19 CNS = tested on: SNB-19 CNS
ACHN renal = tested on: ACHN renal
COLO 205 colon = tested on: COLO 205 colon
UACC-257 melanoma = tested on: UACC-257 melanoma
MOLT-4 leukemia = tested on: MOLT-4 leukemia
IGROV1 ovarian = tested on: IGROV1 ovarian
OVCAR-3 ovarian = tested on: OVCAR-3 ovarian
T-47D breast = tested on: T-47D breast
SNB-75 CNS = tested on: SNB-75 CNS
CAKI-1 renal = tested on: CAKI-1 renal
SF-268 CNS = tested on: SF-268 CNS
A498 renal = tested on: A498 renal
HCT-15 colon = tested on: HCT-15 colon
MALME-3M melanoma = tested on: MALME-3M melanoma
M14 melanoma = tested on: M14 melanoma
SW-620 colon = tested on: SW-620 colon
OVCAR-8 ovarian = tested on: OVCAR-8 ovarian
HOP-62 NSCLC = tested on: HOP-62 NSCLC
MDA-MB-435 = tested on: MDA-MB-435
BT-549 breast = tested on: BT-549 breast
U251 CNS = tested on: U251 CNS
NCI-H226 lung = tested on: NCI-H226 lung
786-0 renal = tested on: 786-0 renal
K-562 leukemia = tested on: K-562 leukemia
NCI/ADR-RES ovarian = tested on: NCI/ADR-RES ovarian
PC-3 prostate = tested on: PC-3 prostate
UO-31 renal = tested on: UO-31 renal
HOP-92 NSCLC = tested on: HOP-92 NSCLC
MDA-N = tested on: MDA-N
A549 NSCLC = tested on: A549 NSCLC
OVCAR-5 ovarian = tested on: OVCAR-5 ovarian
TK-10 renal = tested on: TK-10 renal
DU-145 prostate = tested on: DU-145 prostate
SN12C renal = tested on: SN12C renal
OVCAR-4 ovarian = tested on: OVCAR-4 ovarian
KM12 colon = tested on: KM12 colon
NCI-H23 lung = tested on: NCI-H23 lung
SF-539 CNS = tested on: SF-539 CNS
EKVX NSCLC = tested on: EKVX NSCLC
LOX IMVI melanoma = tested on: LOX IMVI melanoma
HCC-2998 colon = tested on: HCC-2998 colon
HCT-116 colon = tested on: HCT-116 colon
SK-OV-3 ovarian = tested on: SK-OV-3 ovarian
HT29 colon = tested on: HT29 colon
RXF 393 renal = tested on: RXF 393 renal
RPMI-8226 leukemia = tested on: RPMI-8226 leukemia
NCI-H460 lung = tested on: NCI-H460 lung
MCF7 breast = tested on: MCF7 breast
SK-MEL-5 melanoma = tested on: SK-MEL-5 melanoma
SF-295 CNS = tested on: SF-295 CNS
UACC-62 melanoma = tested on: UACC-62 melanoma

CN(C)CC1CCC/C(=C\c2ccc(OC(=O)/C=C/c3ccccc3)cc2)C1=O (stereo not drawn)
TGI (SK-MEL-2 melanoma): 7.79 µM
TGI (CCRF-CEM leukemia): 0.808 µM
TGI (SK-MEL-28 melanoma): 7.49 µM
TGI (HL-60(TB) leukemia): > 100 µM
TGI (HS 578T breast): 13.1 µM
TGI (MDA-MB-231 breast): 8.2 µM
TGI (SR leukemia): > 100 µM
TGI (SNB-19 CNS): 20.7 µM
TGI (ACHN renal): 6.62 µM
TGI (COLO 205 colon): 3.95 µM
TGI (UACC-257 melanoma): 21.2 µM
TGI (MOLT-4 leukemia): > 37.1 µM
TGI (IGROV1 ovarian): 14 µM
TGI (OVCAR-3 ovarian): 3.63 µM
TGI (T-47D breast): 2.58 µM
TGI (SNB-75 CNS): 17 µM
TGI (CAKI-1 renal): 3.38 µM
TGI (SF-268 CNS): 8.67 µM
TGI (A498 renal): 23.2 µM
TGI (HCT-15 colon): 3.14 µM
TGI (MALME-3M melanoma): 5.02 µM
TGI (M14 melanoma): 5.35 µM
TGI (SW-620 colon): 4.94 µM
TGI (OVCAR-8 ovarian): 3.9 µM
TGI (HOP-62 NSCLC): 10.6 µM
TGI (MDA-MB-435): 7.37 µM
TGI (BT-549 breast): 4.47 µM
TGI (U251 CNS): 3.84 µM
TGI (NCI-H226 lung): 9.54 µM
TGI (786-0 renal): 2.06 µM
TGI (K-562 leukemia): > 42.6 µM
TGI (NCI/ADR-RES ovarian): 5.12 µM
TGI (PC-3 prostate): 19.5 µM
TGI (UO-31 renal): 3.66 µM
TGI (HOP-92 NSCLC): 4.65 µM
TGI (MDA-N): 6.28 µM
TGI (A549 NSCLC): 8.4 µM
TGI (OVCAR-5 ovarian): 7.24 µM
TGI (TK-10 renal): 3.76 µM
TGI (DU-145 prostate): 7.11 µM
TGI (SN12C renal): 4.43 µM
TGI (OVCAR-4 ovarian): 9.44 µM
TGI (KM12 colon): 3.44 µM
TGI (NCI-H23 lung): 4.04 µM
TGI (SF-539 CNS): 3.76 µM
TGI (EKVX NSCLC): 4.89 µM
TGI (LOX IMVI melanoma): 1.7 µM
TGI (HCC-2998 colon): > 28.1 µM
TGI (HCT-116 colon): 2.8 µM
TGI (SK-OV-3 ovarian): > 50.9 µM
TGI (HT29 colon): 3.75 µM
TGI (RXF 393 renal): 3.71 µM
TGI (RPMI-8226 leukemia): 6.88 µM
TGI (NCI-H460 lung): 21.9 µM
TGI (MCF7 breast): 1.93 µM
TGI (SK-MEL-5 melanoma): 12.9 µM
TGI (SF-295 CNS): 13.7 µM
TGI (UACC-62 melanoma): 15.8 µM

N#CCOc1ccc(/C=C/C(=O)c2ccc(Cl)cc2)cc1
TGI (CCRF-CEM leukemia): > 100 µM
TGI (SK-MEL-28 melanoma): > 100 µM
TGI (HL-60(TB) leukemia): > 100 µM
TGI (HS 578T breast): 50.9 µM
TGI (MDA-MB-231 breast): 85.5 µM
TGI (SR leukemia): > 100 µM
TGI (SNB-19 CNS): 61.7 µM
TGI (ACHN renal): > 100 µM
TGI (UACC-257 melanoma): > 100 µM
TGI (MOLT-4 leukemia): > 100 µM
TGI (IGROV1 ovarian): 60.4 µM
TGI (OVCAR-3 ovarian): > 100 µM
TGI (T-47D breast): 61.2 µM
TGI (SNB-75 CNS): 37.2 µM
TGI (SF-268 CNS): > 100 µM
TGI (A498 renal): 49.5 µM
TGI (HCT-15 colon): > 100 µM
TGI (MALME-3M melanoma): 58.4 µM
TGI (M14 melanoma): > 100 µM
TGI (SW-620 colon): 70.4 µM
TGI (OVCAR-8 ovarian): 93.6 µM
TGI (HOP-62 NSCLC): 57.5 µM
TGI (MDA-MB-435): > 100 µM
TGI (BT-549 breast): 11.7 µM
TGI (U251 CNS): 99.3 µM
TGI (NCI-H226 lung): > 100 µM
TGI (786-0 renal): 48.1 µM
TGI (K-562 leukemia): > 100 µM
TGI (NCI/ADR-RES ovarian): 48.5 µM
TGI (PC-3 prostate): > 100 µM
TGI (UO-31 renal): 88.6 µM
TGI (HOP-92 NSCLC): 81.4 µM
TGI (MDA-N): > 100 µM
TGI (A549 NSCLC): > 100 µM
TGI (OVCAR-5 ovarian): > 100 µM
TGI (TK-10 renal): 74.5 µM
TGI (DU-145 prostate): > 100 µM
TGI (SN12C renal): > 100 µM
TGI (OVCAR-4 ovarian): > 100 µM
TGI (KM12 colon): 73.5 µM
TGI (NCI-H23 lung): 76.3 µM
TGI (SF-539 CNS): 36.4 µM
TGI (EKVX NSCLC): > 100 µM
TGI (LOX IMVI melanoma): 37.5 µM
TGI (HCC-2998 colon): 98.8 µM
TGI (HCT-116 colon): 27.8 µM
TGI (SK-OV-3 ovarian): 37.3 µM
TGI (HT29 colon): > 100 µM
TGI (RXF 393 renal): 38.5 µM
TGI (RPMI-8226 leukemia): > 100 µM
TGI (NCI-H460 lung): 64.2 µM
TGI (MCF7 breast): 54.1 µM
TGI (SK-MEL-5 melanoma): 43.6 µM
TGI (SF-295 CNS): 53.9 µM
TGI (UACC-62 melanoma): 41.6 µM
